Test results taken from paper PMC10511702, “Design, molecular modelling and synthesis of novel benzothiazole derivatives as BCL-2 inhibitors” (Scientific Reports, 2023).

What was measured:
recombinant BCL-2 = molecular target: T1, recombinant BCL-2 (Homo sapiens, UniProt P10415); assay: In vitro BCL-2 inhibitory activity, TR-FRET assay (BPS Bioscience); type: binding; conditions: for IC50: 5 concentrations 1 nM-10 µM; for inhibition at 10 µM / BCL-2 inhibition %: single dose of 10 µM
T1 construct: purchased BPS Bioscience 50272
T1 sequence (P10415 whole entry): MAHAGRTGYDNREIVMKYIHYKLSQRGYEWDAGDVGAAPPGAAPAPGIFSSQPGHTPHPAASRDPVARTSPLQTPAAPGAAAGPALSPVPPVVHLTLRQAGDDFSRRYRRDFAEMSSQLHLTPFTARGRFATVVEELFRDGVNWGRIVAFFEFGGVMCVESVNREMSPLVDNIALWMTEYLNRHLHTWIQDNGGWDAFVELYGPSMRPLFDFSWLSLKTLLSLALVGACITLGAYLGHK
Method: The in vitro enzyme inhibition determination for the synthesized compounds was carried out in BPS Bioscience Corporation, San Diego, CA, USA (www.bpsbioscience.com). […] The assay was performed by TR-FRET technology using a recombinant BCL-2 and a peptide- ligand substrate. The TR-FRET signal from the assay is correlated with the amount of Ligand binding to BCL-2. […] All of the binding reactions were conducted at room temperature. […] The reaction mixture incubated for 180 min prior to reading the TR-FRET signal. For the background, ligand was replaced with assay buffer. Fluorescence signals for both the donor and acceptor dyes were measured using a Tecan Infinite M1000 plate reader. TR-FRET was recorded as the ratio of the fluorescence of the acceptor and the donor dyes (acceptor/donor). Binding experiments were performed in duplicate at each concentration. The TR-FRET data were analyzed using the computer software, Graphpad Prism. In the absence of the compound in wells containing BCL-2 ligand, the TR-FRET signal (Ft) in each data set was defined as 100% activity. In wells without peptide ligand, the TR-FRET signal (Fb) in each data set was defined as 0% activity. The percent activity in the presence of each compound was calculated according to the following equation: % activity = [(F − Fb)/ (Ft − Fb)] × 100, where F = the TR-FRET signal in the presence of the compound. The percent inhibition was calculated according to the following equation: % inhibition = 100—% activity. IC50 determination for target compounds against BCL-2 was calculated. […] The IC50 value was determined by the concentration causing a half-maximal percent activity.

Row | Compound | IC50 (recombinant BCL-2) | inhibition at 10 µM (recombinant BCL-2) | melting point | BCL-2 inhibition % (recombinant BCL-2) | inhibition at 0.1 µM (recombinant BCL-2; at 100 nM)
1 | O=C(Nc1ccc(OCc2ccc(C(F)(F)F)cc2)cc1)c1ccc2nc(NS(=O)(=O)c3ccc4ccccc4c3)sc2c1 [8f, N-(4-((4-Trifluormethylbenzyl)oxy)phenyl)-2-(naphthalene-2-sulfonamido)benzo-[d]thiazole-6-carboxamide] | – | 14% | ≥ 300 °C | – | –
2 | O=C(Nc1ccc(Oc2ccc(Cl)c(F)c2)cc1)c1ccc2nc(NS(=O)(=O)c3ccc4ccccc4c3)sc2c1 [9a, N-(4-(4-Chloro-3-fluorophenoxy)phenyl)-2-(naphthalene-2-sulfonamido)benzo[d]thiazole-6-carboxamide] | – | 9% | 294 to 296 °C | – | –
3 | O=C(c1ccc2nc(NS(=O)(=O)c3ccc4ccccc4c3)sc2c1)N1CCN(C(=O)C2CCCO2)CC1 (stereo not drawn) [7i, N-(6-(4-(Tetrahydrofuran-2-carbonyl)piperazine-1-carbonyl)benzo[d]thiazol-2-yl)naphthalene-2-sulfonamide] | – | 4% | 230 to 232 °C | – | –
4 | N-(6-(4-(4-Chlorophenyl)piperazine-1-carbonyl)benzo[d]thiazol-2-yl)naphthalene-2-sulfonamide [7d] | – | – | – | 8% | –
5 | O=C(c1ccc2nc(NS(=O)(=O)c3ccc4ccccc4c3)sc2c1)N1CCN(C(c2ccccc2)c2ccccc2)CC1 [7f, N-(6-(4-Benzhydrylpiperazine-1-carbonyl)benzo[d]thiazol-2-yl)naphthalene-2-sulfonamide] | – | 7% | 200 to 202 °C | – | –
6 | O=C(c1ccc2nc(NS(=O)(=O)c3ccc4ccccc4c3)sc2c1)N1CCN(Cc2ccc3c(c2)OCO3)CC1 [7h, N-(6-(4-(Benzo[d]dioxol-5-ylmethyl)piperazine-1-carbonyl)benzo[d]thiazol-2-yl)naphthalene-2-sulfonamide] | – | 1% | 178 to 180 °C | – | –
7 | Cc1ccc(COc2ccc(NC(=O)c3ccc4nc(NS(=O)(=O)c5ccc6ccccc6c5)sc4c3)cc2)cc1 [8e, N-(4-((4-Methylbenzyl)oxy)phenyl)-2-(naphthalene-2-sulfonamido)benzo[d]thiazole-6-carboxamide] | – | 13% | ≥ 300 °C | – | –
8 | O=C(Nc1nc2ccc(C(=O)N3CCN(C(c4ccccc4)c4ccccc4)CC3)cc2s1)c1ccc(NCCc2ccccc2)c([N+](=O)[O-])c1 [12c, N-(6-(4-Benzhydrylpiperazine-1-carbonyl)benzo[d]thiazol-2-yl)-3-nitro-(phenethylamino)-benzamide] | – | 18% | 170 to 172 °C | – | –
9 | COc1ccccc1N1CCN(C(=O)c2ccc3nc(NC(=O)c4ccc(NCCc5ccccc5)c([N+](=O)[O-])c4)sc3c2)CC1 [12a, N-(6-(4-(2-Methoxyphenyl)piperazine-1-carbonyl)benzo[d]thiazol-2-yl)-3-nitro-4-(phenethylamino)benzamide] | – | 15% | 184 to 186 °C | – | –
10 | N-(6-(4-(3,4-Dichlorophenyl)piperazine-1-carbonyl)benzo[d]thiazol-2-yl)naphthalene-2-sulfonamide [7e] | – | – | – | 0% | –
11 | O=C(Nc1nc2ccc(C(=O)N3CCN(C/C=C/c4ccccc4)CC3)cc2s1)c1ccc(NCCc2ccccc2)c([N+](=O)[O-])c1 [12d, (E)-N-(6-(4-Cinnamylpiperazine-1-carbonyl)benzo[d]thiazol-2-yl)-3-nitro-4-(phenethyl-amino)benzamide] | – | 14% | 244 to 246 °C | – | –
12 | O=C(Nc1ccc(Oc2ccc(Br)cc2)cc1)c1ccc2nc(NS(=O)(=O)c3ccc4ccccc4c3)sc2c1 [9b, N-(4-(4-Bromophenoxy)phenyl)-2-(naphthalene-2-sulfonamido)benzo[d]thiazole-6-carboxamide] | – | 9% | 280 to 282 °C | – | –
13 | O=C(c1ccc2nc(NS(=O)(=O)c3ccc4ccccc4c3)sc2c1)N1CCN(c2ccccc2)CC1 [7a, N-(6-(4-Phenylpiperazine-1-carbonyl)benzo[d]thiazol-2-yl)naphthalene-2-sulfonamide] | – | 0% | – | – | –
14 | O=C(Nc1ccc(OCc2ccc(Cl)cc2)cc1)c1ccc2nc(NS(=O)(=O)c3ccc4ccccc4c3)sc2c1 [8c, N-(4-((4-Chlorobenzyl)oxy)phenyl)-2-(naphthalene-2-sulfonamido)benzo[d]thiazole-6-carboxamide] | – | 48% | 296 to 298 °C | – | –
15 | O=C(Nc1ccc(OCc2ccc(Br)cc2)cc1)c1ccc2nc(NS(=O)(=O)c3ccc4ccccc4c3)sc2c1 [8d, N-(4-((4-Bromobenzyl)oxy)phenyl)-2-(naphthalene-2-sulfonamido)benzo[d]thiazole-6-carboxamide] | 1620 nM | > 60% | ≥ 300 °C | – | –
16 | O=C(Nc1nc2ccc(C(=O)N3CCN(C(=O)C4CCCO4)CC3)cc2s1)c1ccc(NCCc2ccccc2)c([N+](=O)[O-])c1 (stereo not drawn) [12e, 3-Nitro-4-(phenethylamino)-N-(6-(4-(tetrahydrofuran-2-carbonyl)piperazine-1-carbonyl)-benzo[d]thiazol-2-yl)benzamide] | – | 8% | 134 to 136 °C | – | –
17 | COc1ccccc1N1CCN(C(=O)c2ccc3nc(NS(=O)(=O)c4ccc5ccccc5c4)sc3c2)CC1 [7c, N-(6-(4-(2-Methoxyphenyl)piperazine-1-carbonyl)benzo[d]thiazol-2-yl)naphthalene-2-sulfonamide] | – | 2% | 258 to 260 °C | – | –
18 | CC1(C)CCC(CN2CCN(c3ccc(C(=O)NS(=O)(=O)c4ccc(NCC5CCOCC5)c([N+](=O)[O-])c4)c(Oc4cnc5[nH]ccc5c4)c3)CC2)=C(c2ccc(Cl)cc2)C1 [ABT-199 (20), reference compound] | – | – | – | – | 92%

More lines, now with the values ahead:

Row | IC50 (recombinant BCL-2) | inhibition at 10 µM (recombinant BCL-2) | melting point | BCL-2 inhibition % (recombinant BCL-2) | inhibition at 0.1 µM (recombinant BCL-2; at 100 nM) | Compound
19 | 1090 nM | > 60% | 260 to 262 °C | – | – | O=C(Nc1ccc(OCc2ccc(Br)cc2)cc1)c1ccc2nc(NC(=O)c3ccc(NCCc4ccccc4)c([N+](=O)[O-])c3)sc2c1 [13b, N-(4-((4-Bromobenzyl)oxy)phenyl)-2-(3-nitro-4-(phenethylamino)benzamido)-benzo[d]thiazole-6-carboxamide]
20 | – | 18% | ≥ 300 °C | – | – | O=C(Nc1ccc(Cl)c(C(F)(F)F)c1)Nc1ccc2nc(NS(=O)(=O)c3ccc4ccccc4c3)sc2c1 [17g, N-(6-(3-(4-Chloro-3-(trifluoromethyl)phenyl)ureido)benzo[d]thiazol-2-yl)naphthalene-2-sulfonamide]
21 | – | 0% | 290 to 292 °C | – | – | O=C(Nc1ccc(Cl)c(Cl)c1)Nc1ccc2nc(NS(=O)(=O)c3ccc4ccccc4c3)sc2c1 [17h, N-(6-(3-(3,4-Dichlorophenyl)ureido)benzo[d]thiazol-2-yl)naphthalene-2-sulfonamide]
22 | 2290 nM | > 60% | ≥ 300 °C | – | – | O=C(Nc1ccc(Br)cc1)Nc1ccc2nc(NS(=O)(=O)c3ccc4ccccc4c3)sc2c1 [17f, N-(6-(3-(4-Bromophenyl)ureido)benzo[d]thiazol-2-yl)naphthalene-2-sulfonamide]
23 | – | 35% | 260 to 262 °C | – | – | O=C(Nc1ccc(OCc2cccc(Cl)c2)cc1)c1ccc2nc(NC(=O)c3ccc(NCCc4ccccc4)c([N+](=O)[O-])c3)sc2c1 [13a, N-(4-((3-Chlorobenzyl)oxy)phenyl)-2-(3-nitro-4-(phenethylamino)benzamido) benzo[d]thiazole-6-carboxamide]
24 | – | 14% | 280 to 282 °C | – | – | Cc1cc(Cl)ccc1NC(=O)Nc1ccc2nc(NS(=O)(=O)c3ccc4ccccc4c3)sc2c1 [17i, N-(6-(3-(4-Chloro-2-methylphenyl)ureido)benzo[d]thiazol-2-yl)naphthalene-2-sulfonamide]
25 | – | 7% | ≥ 300 °C | – | – | COc1cccc(NC(=O)Nc2ccc3nc(NS(=O)(=O)c4ccc5ccccc5c4)sc3c2)c1 [17d, N-(6-(3-(3-Methoxyphenyl)ureido)benzo[d]thiazol-2-yl)naphthalene-2-sulfonamide]
26 | – | 20% | 196 to 198 °C | – | – | O=C(Nc1ccc(Oc2ccc(Cl)c(F)c2)cc1)c1ccc2nc(NC(=O)c3ccc(NCCc4ccccc4)c([N+](=O)[O-])c3)sc2c1 [14a, N-(4-(4-Chloro-3-fluorophenoxy)phenyl)-2-(3-nitro-4-(phenethylamino)benzamido)-benzo[d]thiazole-6-carboxamide]
27 | – | 10% | ≥ 300 °C | – | – | O=C(Nc1cccc(Br)c1)Nc1ccc2nc(NS(=O)(=O)c3ccc4ccccc4c3)sc2c1 [17c, N-(6-(3-(3-Bromophenyl)ureido)benzo[d]thiazol-2-yl)naphthalene-2-sulfonamide]
28 | – | 7% | ≥ 300 °C | – | – | O=C(Nc1cccc(Cl)c1)Nc1ccc2nc(NS(=O)(=O)c3ccc4ccccc4c3)sc2c1 [17b, N-(6-(3-(3-Chlorophenyl)ureido)benzo[d]thiazol-2-yl)naphthalene-2-sulfonamide]
29 | – | 9% | ≥ 300 °C | – | – | Cc1ccc(NC(=O)Nc2ccc3nc(NS(=O)(=O)c4ccc5ccccc5c4)sc3c2)cc1Cl [17j, N-(6-(3-(3-Chloro-4-methylphenyl)ureido)benzo[d]thiazol-2-yl)naphthalene-2-sulfonamide]
